The values below are quoted from earlier work in patent US20120309722A1, “THERAPEUTIC REGIMENS FOR THE TREATMENT OF IMMUNOINFLAMMATORY DISORDERS” (priority 2007, published 2012).

The conditions of data set [1]: BNF guidelines; for Equivalent Dose to Prednisolone: Equal to 1 mg prednisolone: dose equivalent to 1 mg prednisolone; for Equivalent Dose to Prednisolone: Equal to 5 mg prednisolone: dose equivalent to 5 mg prednisolone.
For data set [2] the following is noted: nasal administration; BNF 37 March 1999.

For `CC(=O)OCC(=O)[C@@]1(O)CC[C@H]2[C@@H]3CCC4=CC(=O)CC[C@]4(C)[C@H]3C(=O)C[C@@]21C` [cortisone acetate], in data set [1], the “Equivalent Dose to Prednisolone: Equal to 1 mg prednisolone” value (“Equivalent Dose … to 1 mg prednisolone” for short) is given as 5 mg and the “Equivalent Dose to Prednisolone: Equal to 5 mg prednisolone” value (“Equivalent Dose … to 5 mg prednisolone” for short) is 25 mg.

As to `C[C@]12C=CC(=O)C=C1CC[C@H]1[C@@H]3C[C@@H](O)[C@](O)(C(=O)CO)[C@@]3(C)C[C@H](O)[C@@]12F` [triamcinolone], in data set [1], the “Equivalent Dose … to 1 mg prednisolone” value was 0.8 mg and the “Equivalent Dose … to 5 mg prednisolone” value is given as 4 mg. Further, the “broadly similar dose from clinical dosing equivalence” value in data set [2] was 110 µg.

On to `C[C@]12CCC(=O)C=C1CC[C@@H]1[C@@H]2[C@@H](O)C[C@@]2(C)[C@H]1CC[C@]2(O)C(=O)CO` [hydrocortisone], for which, in data set [1], the “Equivalent Dose … to 1 mg prednisolone” value is 4 mg and the “Equivalent Dose … to 5 mg prednisolone” value is reported as 20 mg.

Take methyl prednisone: in data set [1], the “Equivalent Dose … to 1 mg prednisolone” value was 0.8 mg and the “Equivalent Dose … to 5 mg prednisolone” value is 4 mg.

`CC(=O)OCC(=O)[C@@]12N=C(C)O[C@@H]1C[C@H]1[C@@H]3CCC4=CC(=O)C=C[C@]4(C)[C@H]3[C@@H](O)C[C@@]12C` [deflazacort]: in data set [1], the “Equivalent Dose … to 1 mg prednisolone” value is listed as 1.2 mg and the “Equivalent Dose … to 5 mg prednisolone” value is reported as 6 mg.
